Test results from ChEMBL document CHEMBL1136085, “Structure-activity study of novel tricyclic benzazepine arginine vasopressin antagonists” (Bioorg Med Chem Lett, 2003).

Experiments:
[1] = system: Rattus norvegicus; assay: Aquaretic effect was measured by the amount of urine collected after 4 hr at a dose of 30 mg/kg ip in 6 Dawley rats; format: functional; settings: route intraperitoneal
[2] = system: Rattus norvegicus; assay: Aquaretic effect was measured by the amount of urine collected after 4 hr at a dose of 10 mg/kg ip in 2 Dawley rats; format: functional; settings: route intraperitoneal
[3] = biological target: Vasopressin V2 receptor (Rattus norvegicus, UniProt Q00788); assay: Inhibition of [3H]AVP binding to Dawley rat kidney medullary vasopressin V2 receptor.
Vasopressin V2 receptor, sequence (Q00788 whole entry): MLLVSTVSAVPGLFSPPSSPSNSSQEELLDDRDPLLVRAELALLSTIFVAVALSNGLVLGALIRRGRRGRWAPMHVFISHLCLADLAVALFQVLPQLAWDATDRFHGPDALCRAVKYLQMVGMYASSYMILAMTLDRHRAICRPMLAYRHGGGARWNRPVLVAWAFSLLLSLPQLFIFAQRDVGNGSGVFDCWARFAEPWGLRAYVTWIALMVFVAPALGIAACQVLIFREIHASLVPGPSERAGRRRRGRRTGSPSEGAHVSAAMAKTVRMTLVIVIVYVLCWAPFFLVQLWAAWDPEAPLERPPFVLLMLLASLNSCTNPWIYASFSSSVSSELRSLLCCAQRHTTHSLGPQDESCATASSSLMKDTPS

[4] = biological target: T1, Vasopressin V1a receptor (Rattus norvegicus, UniProt P30560); assay: Inhibition of [3H]AVP binding to Dawley rat hepatic vasopressin V1a receptor.
T1 sequence (P30560 whole entry): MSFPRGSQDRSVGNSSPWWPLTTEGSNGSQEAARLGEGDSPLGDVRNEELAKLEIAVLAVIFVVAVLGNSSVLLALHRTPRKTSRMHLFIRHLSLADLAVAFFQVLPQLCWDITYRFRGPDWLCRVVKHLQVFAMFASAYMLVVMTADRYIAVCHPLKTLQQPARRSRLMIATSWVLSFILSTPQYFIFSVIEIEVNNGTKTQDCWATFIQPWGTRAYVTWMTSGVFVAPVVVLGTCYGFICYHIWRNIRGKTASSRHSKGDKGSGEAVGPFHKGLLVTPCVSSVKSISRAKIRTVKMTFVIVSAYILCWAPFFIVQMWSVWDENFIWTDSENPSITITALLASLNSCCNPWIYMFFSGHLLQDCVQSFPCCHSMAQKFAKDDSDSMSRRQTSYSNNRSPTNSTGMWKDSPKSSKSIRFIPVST

[5] = biological target: T1, Vasopressin V1a receptor; assay: Compound was tested for the inhibition of [3H]AVP binding to Dawley […]
[6] = biological target: Vasopressin V2 receptor (Rattus norvegicus) (UniProt Q00788); assay: Compound was tested for the inhibition of [3H]AVP binding to Dawley rat kidney medullary Vasopressin V2 receptor; settings: concentration not given here
Vasopressin V2 receptor (Rattus norvegicus), sequence (Q00788 whole entry): as the sequence (Q00788 whole entry) above

[7] = biological target: Vasopressin V1a receptor (Rattus norvegicus) (UniProt P30560); assay: Compound was tested for the inhibition of [3H]AVP binding to Dawley rat hepatic Vasopressin V1a receptor; settings: concentration not given here
Vasopressin V1a receptor (Rattus norvegicus), sequence (P30560 whole entry, looked up): as the sequence (P30560 whole entry) above

| Compound | IC50 [3] [nM] | IC50 [4] [nM] | other results |
| --- | --- | --- | --- |
| Cc1ccccc1C(=O)Nc1ccc(C(=O)N2Cc3ccccc3Nc3ccccc32)cc1 |  |  | Urine volume [1]: 7.4 ml 4hr-1 |
| Cc1ccc(F)cc1C(=O)Nc1ccc(C(=O)N2Cc3cccn3Cc3ccccc32)cc1 | 1.5 |  | Urine volume [2]: 21.8 ml 4hr-1 |
| O=C(Nc1ccc(C(=O)N2Cc3cccn3Cc3ccccc32)cc1)c1ccccc1Cl |  |  | Urine volume [2]: 12.4 ml 4hr-1 |
| Cc1ccccc1C(=O)Nc1ccc(C(=O)N2c3ccccc3CCc3ccccc32)cc1 | 860 | 2500 |  |
| Cc1ccccc1C(=O)Nc1ccc(C(=O)N2Cc3ccccc3Oc3ccccc32)cc1 | 1700 | 1500 |  |
| Cc1ccc(F)cc1C(=O)Nc1ccc(C(=O)N2Cc3cccn3Cc3ccccc32)c(Cl)c1 [LIXIVAPTAN] |  |  | Urine volume [2]: 22 ml 4hr-1 |
| O=C(Nc1ccc(C(=O)N2Cc3cccn3Cc3ccccc32)cc1)c1ccccc1O | 540 |  |  |
| Cc1ccccc1C(=O)Nc1ccc(C(=O)N2Cc3ccccc3CCc3ccccc32)cc1 | 50000 |  | IC50 [5]: 50000 nM; inhibition [6]: 80%; inhibition [7]: 60% |
| O=C(Nc1ccc(C(=O)N2Cc3cccn3Cc3ccccc32)cc1)c1ccccc1Br | 7 | 2 |  |
| O=C(Nc1ccc(C(=O)N2Cc3cccn3Cc3ccccc32)cc1)c1ccc(F)cc1Cl | 4 | 7 |  |
| Cc1cccc(C(=O)Nc2ccc(C(=O)N3Cc4cccn4Cc4ccccc43)cc2)c1C | 13 | 240 |  |
